Test results: US20240199542A1, “SUBSTITUTED PYRROLIDIN-2-ONES, SALTS THEREOF AND THEIR USE AS HERBICIDALLY ACTIVE SUBSTANCES” (Bayer Aktiengesellschaft, priority 2021, published 2024)

Legend:
Assay type in all cases: in vivo
[1] = test system: Alopecurus myosuroides (ALOMY); test: Herbicidal pre-emergence action; settings: 1280 g/ha, graded after ca. 3 weeks
Text: (§1) Seeds of mono- and dicotyledonous weed plants and crop plants were sown, in plastic or organic planting pots, in sandy loam and covered with soil. The compounds according to the invention, formulated in the form of wettable powders (WP) or as emulsifiable concentrates (EC), were applied to the surface of the covering soil as aqueous suspension or emulsion, with the addition of 0.5% of an additive, at an application rate of 600 1 of water/ha (converted).
(§2) Following treatment, the pots were placed in a greenhouse and kept under optimum growth conditions for the test plants. The visual grading of the damage to the test plants was carried out after ca. 3 weeks in comparison to untreated controls (herbicidal effect in percent (%): 100% effect=plants have died off, 0% effect=as control plants).
(§3) Tables A1 to A16, below, show the effects of selected compounds of the general formula (I) according to table 1 on various harmful plants and an application rate corresponding to 1280 g/ha or lower obtained by the experimental procedure mentioned above.

[2] = test system: Avena fatua (AVEFA); test: Herbicidal pre-emergence action; settings: graded after ca. 3 weeks
Text: as §1, §2, §3

[3] = test system: Echinochloa crus-galli (ECHCG); test: Herbicidal pre-emergence action; settings: 1280 g/ha, graded after ca. 3 weeks
Text: as §1, §2, §3

[4] = test system: Polygonum convolvulus (POLCO); test: Herbicidal pre-emergence action; settings: graded after ca. 3 weeks
Text: as §1, §2, §3

[5] = test system: Echinochloa crus-galli (ECHCG); test: Herbicidal post-emergence action; settings: 1280 g/ha, assessed after ca. 3 weeks
Text: (§4) Seeds of mono- and dicotyledonous weed plants and crop plants were sown, in plastic or organic planting pots, in sandy loam, covered with soil and grown in a greenhouse under controlled growth conditions. 2 to 3 weeks after sowing, the test plants were sprayed in the single-leaf stage. The compounds according to the invention, formulated in form of wettable powders (WP) or as emulsifiable concentrates (EC), were sprayed onto the green plant parts as aqueous suspension or emulsion, with the addition of 0.5% of an additive, at an application rate of 600 1 of water/ha (converted). The test plants were placed in the greenhouse for ca. 3 weeks under optimum growth conditions, and then the effect of the preparations was assessed visually in comparison with untreated controls (herbicidal effect in percent (%): 100% effect=plants have died off, 0% effect=as control plants).
(§5) Tables B1 to B16 below show the effects of selected compounds of the general formula (I) according to table 1 on various harmful plants and an application rate corresponding to 1280 g/ha or 320 g/ha obtained by the experimental procedure mentioned above.

[6] = test system: Setaria viridis (SETVI); test: Herbicidal post-emergence action; settings: 1280 g/ha, assessed after ca. 3 weeks
Text: as §4, §5

[7] = test system: Alopecurus myosuroides (ALOMY); test: Herbicidal post-emergence action; settings: 1280 g/ha, assessed after ca. 3 weeks
Text: as §4, §5

[8] = test system: Lolium multiflorum (LOLMU); test: Herbicidal post-emergence action; settings: 1280 g/ha, assessed after ca. 3 weeks
Text: as §4, §5

[9] = test system: Veronica persica (VERPE); test: Herbicidal pre-emergence action; settings: 1280 g/ha, graded after ca. 3 weeks
Text: as §1, §2, §3

[10] = test system: Lolium multiflorum (LOLMU); test: Herbicidal pre-emergence action; settings: 1280 g/ha, graded after ca. 3 weeks
Text: as §1, §2, §3

[11] = test system: Setaria viridis (SETVI); test: Herbicidal pre-emergence action; settings: 1280 g/ha, graded after ca. 3 weeks
Text: as §1, §2, §3

[12] = test system: Avena fatua (AVEFA); test: Herbicidal post-emergence action; settings: 1280 g/ha, assessed after ca. 3 weeks
Text: as §4, §5

[13] = test system: Cyperus esculentus (CYPES); test: Herbicidal pre-emergence action; settings: 1280 g/ha, graded after ca. 3 weeks
Text: as §1, §2, §3

Row | Structure (SMILES) | Pre-emergence activity against ALOMY [1] [%] | Pre-emergence activity against AVEFA ([2]; 1280 g/ha) [%] | Pre-emergence activity against ECHCG [3] [%] | Pre-emergence activity against POLCO ([4]; 1280 g/ha) [%] | Post-emergence activity against ECHCG [5] [%] | Post-emergence activity against SETVI [6] [%] | Post-emergence activity against ALOMY [7] [%] | Post-emergence activity against LOLMU [8] [%] | Pre-emergence activity against VERPE [9] [%] | Pre-emergence activity against LOLMU [10] [%] | Pre-emergence activity against SETVI [11] [%] | Post-emergence activity against AVEFA [12] [%] | Pre-emergence activity against CYPES [13] [%] | Pre-emergence activity against AVEFA ([2]; 320 g/ha) [%] | Pre-emergence activity against POLCO ([4]; 320 g/ha) [%]
1 | O=C(CC1CCC(=O)N1Cc1cccc(F)c1F)NC(Cc1ccccc1)C(=O)O (mixture of isomers) [Example I-044] | 80 | 90 | 80 | 90 | 90 | 80 | – | – | – | – | – | – | – | – | –
2 | CC(C)CC(NC(=O)CC1CCC(=O)N1Cc1cccc(F)c1F)C(=O)O (mixture of isomers) [Example I-045] | – | 90 | 80 | – | – | 80 | 80 | 80 | – | – | – | – | – | – | –
3 | Cc1ccc2c(c1)C(NC(=O)CC1CCC(=O)N1Cc1cccc(F)c1F)C(C)C2 (mixture of isomers) [Example I-106] | – | – | – | – | – | – | – | – | 80 | – | – | – | – | – | –
4 | COC(=O)CC1CCC(=O)N1Cc1cccc(F)c1F (racemic) [Example I-008] | 90 | 100 | 90 | 90 | 90 | 80 | 80 | 80 | – | 80 | 90 | 90 | – | – | –
5 | CSCCOC(=O)CC1CCC(=O)N1Cc1cccc(F)c1F (racemic) [Example I-010] | 80 | 100 | – | – | 100 | 90 | 80 | 90 | – | – | – | 90 | – | – | –
6 | CCOC(=O)CC1CCC(=O)N1Cc1cccc(F)c1F (racemic) [Example I-019] | 90 | 100 | 90 | 90 | 80 | – | 80 | 90 | – | 90 | 90 | 100 | 80 | – | –
7 | O=C(CC1CCC(=O)N1Cc1cccc(F)c1F)OCCSc1ccccc1 (racemic) [Example I-022] | 90 | 90 | – | – | 90 | 90 | – | 80 | – | – | 80 | 90 | – | – | –
8 | O=C(CC1CCC(=O)N1Cc1cccc(F)c1F)OC1CCC1 (racemic) [Example I-024] | 90 | 100 | 80 | 80 | 90 | 80 | 90 | 90 | – | 90 | 80 | 90 | 90 | – | –
9 | CC(C)OC(=O)CC1CCC(=O)N1Cc1cccc(F)c1F (racemic) [Example I-025] | 90 | 100 | 90 | 80 | 90 | – | 80 | 80 | – | 90 | 80 | 80 | – | – | –
10 | O=C(CC1CCC(=O)N1Cc1cccc(F)c1F)OCC[S+]([O-])c1ccc(Cl)cc1 (racemic) [Example I-029] | 80 | 100 | 90 | – | 90 | – | 80 | 80 | – | 80 | 80 | 90 | – | – | –
11 | COc1ccc(OCCOC(=O)CC2CCC(=O)N2Cc2cccc(F)c2F)cc1 (racemic) [Example I-031] | 90 | 100 | 80 | 80 | 90 | 80 | 90 | 90 | – | – | – | – | 80 | – | –
12 | Cc1ccc(CN2C(=O)CCC2CC(=O)O)c(F)c1F (racemic) [Example I-035] | – | 100 | 80 | – | 90 | 100 | 80 | 80 | – | – | – | 90 | – | – | –
13 | O=C(CC1CCC(=O)N1Cc1cccc(F)c1F)OCCSc1ccc(Cl)cc1 (racemic) [Example I-038] | – | – | – | – | 90 | 80 | 80 | 80 | – | – | – | – | – | – | –
14 | O=C(CC1CCC(=O)N1Cc1cccc(F)c1F)NCCO (racemic) [Example I-049] | 90 | 100 | 80 | 90 | – | – | 80 | – | – | 80 | – | – | – | – | –
15 | NC(=O)CC1CCC(=O)N1Cc1cccc(F)c1F (racemic) [Example I-057] | 90 | 80 | – | 80 | – | – | – | – | – | – | 80 | – | 100 | – | –
16 | Cc1ccc(CN2C(=O)CCC2CC(=O)NS(C)(=O)=O)c(F)c1F (racemic) [Example I-087] | 90 | – | – | – | – | – | – | – | 100 | – | – | – | – | – | –
17 | O=C(CC1CCC(=O)N1Cc1cccc(Cl)c1Cl)NS(=O)(=O)C(F)F (racemic) [Example I-095] | – | – | – | – | – | – | – | – | 80 | – | – | – | – | – | –
18 | CNC(=O)CC1CCC(=O)N1Cc1cccc(F)c1F (racemic) [Example I-104] | – | – | – | 90 | – | – | – | – | – | – | – | – | – | – | –
19 | CS(=O)(=O)NC(=O)CC1CCC(=O)N1Cc1cccc(Cl)c1Cl (racemic) [Example I-105] | – | – | – | – | – | – | – | – | 90 | – | – | – | – | – | –
20 | CC1(C)OC(=O)C(C(=O)CC2CCC(=O)N2Cc2cccc(F)c2F)C(=O)O1 (racemic) [Example I-186] | – | – | – | 100 | 80 | – | – | – | – | – | – | – | – | – | –
21 | O=C(CC1CCC(=O)N1Cc1cccc(F)c1F)NN1CCCCC1 (racemic) [Example I-203] | – | – | – | – | – | – | – | – | – | – | – | – | – | 100 | 80
22 | CC[C@H](C)[C@H](NC(=O)CC1CCC(=O)N1Cc1cccc(F)c1F)C(=O)O (single isomer, unassigned) [Example I-011] | 80 | 90 | – | – | 80 | – | – | 90 | – | 80 | – | 90 | – | – | –
23 | CC[C@@H](C)[C@@H](NC(=O)CC1CCC(=O)N1Cc1cccc(F)c1F)C(=O)O (single isomer, unassigned) [Example I-043] | 90 | 100 | 90 | – | 80 | 80 | 80 | 80 | – | 80 | 90 | 80 | – | – | –
